“Also recorded” adds a separate entry of the source.
How the values were obtained:
[1] = tested on: cholestasis induced by BDL; test: BDL mice: Sirius red staining of liver sections, fibrosis area; format: in vivo; conditions: for Sirius red-positive area: BDL mice liver, Day 14, mean ± SD, n = 8; for fibrosis area compared with the Vehicle group: BDL mice
Description: […]: To visualize collagen deposition, Bouin's fixed liver sections were stained using picro-Sirius red solution (Waldeck, Germany). For quantitative analysis of fibrosis area, bright field images of Sirius red-stained sections were captured using a digital camera (DFC295; Leica, Germany) at 100-fold magnification, and the positive areas in 5 fields/section were measured using ImageJ software (National Institute of Health, USA).

NAFLD patients [2] = test: Phase IIa study in NAFLD patients: hepatic fat by CAP; format: in vivo, human; conditions: 16 weeks
Description: (§1) The study was planned to include 96 evaluable patients with 32 patients randomized per treatment group.
Liver stiffness and CAP: Liver stiffness and CAP were assessed using transient elastography (e.g., FibroScan® 502 Touch model or equivalent). Patients were fasted and scanned at the same time of the day, if possible, for baseline (Week 0) and Visit 10 (Week 16). For this assessment the following conditions were met: patients were lying in dorsal decubitus position with the right arm in maximal abduction behind the head, in a similar position to that used for liver biopsy (LB); the tip of the transducer was placed on the skin between the ribs over the right lobe of the liver (the physician took the measurements with the probe placed in the intercostal space); during the FibroScan® examination the choice of M+ or XL+ probe was determined by the Automatic Probe Selection tool (APS) (If, the APS tool advises to use the “XL+probe” or “switch” continuously between “M+ and XL+ probe”, only the XL+ probe was used); and the operator, assisted by an ultrasonic time motion image, located a portion of the liver which is free of large vascular structures (the depth of measurement was between 35-75 mm for the XL+ probe and 25-65 mm for the M+ probe and the explored volume will be 3 cm^3). […] The final stiffness and CAP values was recorded as median values of valid measurements.

NAFLD patients [3] = test: Phase IIa study in NAFLD patients: metabolic and glycemic parameters; format: in vivo, human
Description: as §1
HOMA-IR/Adipo-IR: HOMA-IR/Adipo-IR levels are a method of measuring insulin resistance. HOMA-IR is calculated by multiplying fasting plasma insulin (FPI) by fasting plasma glucose (FPG), then dividing by the constant 405. Adipo-IR is calculated by multiplying fasting non-esterified fatty acids (NEFA)×fasting insulin. Blood samples were taken to assess HOMA-IR and Adipo-IR at Visit 2/Baseline, Visit 3/Week 2, Visit 4/Week 4, Visit 6/Week 8, Visit 8/Week 12, Visit 10/Week16 and Follow up Visit 11/Week 20. All subjects were required to have been fasted for a minimum of 8 hours prior to blood sampling. If subjects had not fasted for a minimum of 8 hours, the duration of fasting time was recorded, and subjects encouraged to fast appropriately for the next clinical visit.
(§2) Exploratory analysis: The exploratory analysis included analysis of lipid and metabolic parameters including total cholesterol, triglycerides, very low-density lipoprotein cholesterol (VLDL-C), low density lipoprotein cholesterol (LDL-C), high density lipoprotein cholesterol (HDL-C), non-high-density lipoprotein cholesterol (non-HDL-C), remnant-like particle cholesterol (RLP-C), fasting glucose, insulin, free fatty acids and hemoglobin A1C (HbA1C). Additional exploratory analysis included high throughput lipidomics and proteomics.

NAFLD patients [4] = test: Phase IIa study in NAFLD patients: lipid profile and lipidomics; format: in vivo, human; conditions: for Triglycerides (median placebo-corrected % change from baseline): 2 g
Description: as §1
Clinical Laboratory Safety Tests: Safety tests were performed for hematology, serum biochemistry, coagulation, lipid profile, and urinalysis: Blood and urine samples were taken as per the Study Flow Chart in Table 19 for routine hematology, serum biochemistry, coagulation and urinalysis tests, along with a Lipid Profile. All samples were analyzed in the central laboratory. All subjects were fasted for a minimum of 8 hours prior to blood sampling. If subjects had not fasted for a minimum of 8 hours, the duration of fasting time was recorded, and subjects encouraged to fast appropriately for the next clinical visit. • Hematology: Full blood count to include red cell count, hemoglobin, hematocrit, white cell count, differential white cell count, platelet count and reticulocyte count. • Serum biochemistry: Urea (blood urea nitrogen; BUN), creatinine, uric acid, total bilirubin, Indirect and Direct Bilirubin, sodium, bicarbonate potassium, phosphorus, calcium chloride, alkaline phosphatase (ALP), aspartate aminotransferase (AST), alanine aminotransferase (ALT), ALT/AST ratio, lactate dehydrogenase (LDH), creatine phosphokinase (CPK), albumin, total protein, cholesterol, triglycerides, glucose, C-reactive protein (CRP). • Coagulation: prothrombin time (PT), international normalized ratio (INR) and activated partial […]. • Lipid Profile: LDL, HDL, and VLDL-C. • Urinalysis: pH, protein, glucose, blood, ketones, leukocytes, leukocyte esterase, bilirubin, specific gravity, urobilinogen and nitrate. Reflex micro if blood, protein, leukocyte esterase or nitrate/nitrite are present.
as §2

[5] = tested on: cholestasis induced by BDL; test: BDL mice: serum biochemistry (ALT, total bilirubin); format: in vivo; conditions: for Serum ALT / Serum Total Bilirubin: n = 8
Description: Sample Collection: For serum samples, non-fasting blood was collected in serum separate tubes without anticoagulant through direct cardiac puncture and centrifuged at 3,500×g for 4 minutes at 4° C. The supernatant was collected and stored at −80° C. for biochemistry (30 μL) and shipping (all the remaining). For liver samples, left lateral lobe was collected and cut into 6 pieces. Two pieces of left lateral lobe were fixed in Bouin's solution and then embedded in paraffin. Samples were stored at room temperature for histological analysis. The other 2 pieces of left lateral lobe were embedded in O.C.T. compound and quick frozen in liquid nitrogen. Samples were stored at −80° C. The remaining pieces of left lateral lobe was snap frozen in liquid nitrogen and stored at −80° C. for gene expression analyses. Right medial lobe, left medial lobe, right lobe and caudate lobe were snap frozen in liquid nitrogen and stored at −80° C. for shipping.

[6] = 1 g or 2 g per day, baseline to Week 16 vs placebo
[7] = 50 mg/kg PO QD Day 0-13, Day 14, mean ± SD
[8] = 250 mg/kg PO QD Day 0-13, Day 14, mean ± SD
[9] = 500 mg/kg PO QD Day 0-13, Day 14, mean ± SD

15-HEPE [DS102] was tested. Which Sirius red-positive area ([1]; 50 mg/kg PO QD Day 0-13) did it give?
The Sirius red-positive area was 1.70 ± 0.63%.

And the Sirius red-positive area ([1]; 250 mg/kg PO QD Day 0-13)?
The Sirius red-positive area was 1.06 ± 0.48%.

And the Sirius red-positive area ([1]; 500 mg/kg PO QD Day 0-13)?
Its Sirius red-positive area is 1.42 ± 0.60%.

And the “fibrosis area compared with the Vehicle group” value ([1]; 50 mg/kg PO QD Day 0-13)?
The value was “no significant difference”.

What about the “fibrosis area compared with the Vehicle group” value ([1]; 250 mg/kg PO QD Day 0-13) of the same substance?
Its value is “significant decrease”.

And the “fibrosis area compared with the Vehicle group” value ([1]; 500 mg/kg PO QD Day 0-13, 500 mg/kg)?
The value was “tended to decrease; also recorded: trend approaching significance”.

What about the “hepatic fat content as assessed by CAP” value (NAFLD patients [2]) of the same substance?
The value was “reduced”.

And the “insulin sensitivity and glycemic control” value (NAFLD patients [3]; 1 g or 2 g per day, 16 weeks)?
The value was “improvement”.

And the “markers of metabolic overload” value (NAFLD patients [3]; 1 g or 2 g per day, 16 weeks)?
Its value is “statistically significant reduction”.

And the “insulin resistance indices (HOMA-IR and adipo-IR levels)” value (NAFLD patients [3]; 1 g or 2 g per day, Week 16)?
Its value is “improvement”.

And the “HbA1c levels / glycemic control” value (NAFLD patients [3]; [6])?
The value was “clinically significant improvements”.

What about the “insulin, glucose, and free fatty acid levels” value (NAFLD patients [3]; [6]) of the same substance?
The value was “reduction”.

And the “insulin resistance indices (HOMA-IR and adipo-IR levels)” value (NAFLD patients [3]; 2 g per day, Week 16, Per Protocol Set)?
Its value is “significant improvements”.

And the “Triglycerides (median placebo-corrected % change from baseline)” value (NAFLD patients [4]; Week 16, Full Analysis Set)?
The value was −40.2%.

What about the “Triglycerides (median placebo-corrected % change from baseline)” value (NAFLD patients [4]; Week 16, Subgroup: High Triglycerides (>200 mg/dL)) of the same substance?
Its value is −20.4%.

What about the “Triglycerides (median placebo-corrected % change from baseline)” value (NAFLD patients [4]; Week 16, Subgroup: Triglycerides > Upper Limit Normal (>150 mg/dL)) of the same substance?
Its value is −39.0%.

What about the “levels of multiple glycerophospholipid groups” value (NAFLD patients [4]; NAFLD patients, 2 g per day) of the same substance?
Its value is “significantly increased”.

And the “levels of multiple hepatotoxic diglycerides” value (NAFLD patients [4]; NAFLD patients, 2 g per day)?
Its value is “significantly decreased”.

What about the triglyceride levels (NAFLD patients [4]; NAFLD patients, Week 16) of the same substance?
The triglyceride levels was “lowered”.

What about the “lipid profile (total cholesterol, VLDL-C, non-HDL-C, RLP cholesterol, triglycerides)” value (NAFLD patients [4]; NAFLD patients, Week 16, safety analysis set) of the same substance?
The value was “significantly improved”.

And the “Serum ALT” value [5, 7]?
Its value is 402 ± 112 U/L.

What about the “Serum Total Bilirubin” value [5, 7] of the same substance?
The value was 26.8 ± 6.9 mg/dL.

What about the “Serum ALT” value [5, 8] of the same substance?
Its value is 351 ± 155 U/L.

And the “Serum Total Bilirubin” value [5, 8]?
Its value is 23.5 ± 9.8 mg/dL.

And the “Serum ALT” value [5, 9]?
The value was 383 ± 147 U/L.

And the “Serum Total Bilirubin” value [5, 9]?
Its value is 26.2 ± 6.1 mg/dL.

And the “serum ALT level vs Vehicle group” value ([5]; 50, 250 and 500 mg/kg PO QD)?
Its value is “no significant differences”.

What about the “serum total bilirubin level vs Vehicle group” value ([5]; 50, 250 and 500 mg/kg PO QD) of the same substance?
Its value is “no significant differences”.
